For one series, the system named is TNNT2. Description: Nanostring gene expression, hESC-derived cardiomyocytes in monolayer: TNNT2. The series is classed as cell-based, human.
The subject of series [1] is hESC-derived cardiomyocytes. In words: Beating of hESC-derived cardiomyocytes after exposure to antiarrhythmic drugs. The class given is cell-based, human.
Experimental: Dissociated cardiomyocytes were seeded in RPMI1640 medium supplemented with 2% B27 and 0.1% Pen/Strep (Gibco) on laminin-521 or geltrex (Life Technologies)-coated plates at a cell density of 1×10^5/cm^2. […] Blank medium, addition of solvents as well as cardiomyocytes cultured for 9 days and day 42 were used as control. Beating of cells was assessed after 48 h, 72 h and 96 h.
For series [2], the system named is NPPA. Description: Nanostring gene expression, hESC-derived cardiomyocytes in monolayer: NPPA. The series is classed as cell-based, human.
Experimental: (§3) Blank medium, addition of solvents as well as cardiomyocytes cultured for 9 days and day 42 were used as control. Beating of cells was assessed after 48 h, 72 h and 96 h. Cells were harvested following incubation for 10 minutes in RLTplus buffer (Qiagen). Changes in gene expression were determined using a custom nanostring gene panel (NanoString Technologies) according to manufacturer's instruction for the following target sequences including 7 housekeeping genes listed in Table 1.
(§4) To study the direct impact of antiarrhythmic drugs on the properties of hESC-derived cardiomyocytes, changes in expression level of selected genes were analyzed that are associated with action potential formation (HCN1, HCN4, KCNA5, KCNE4, KCNH7, KCNJ3, KCNJ5, SCN1B, SCN5A), electrical signal propagation (GJA1, GJA5, GJD3), calcium handling (CACNA1C, CACNA1D, CACNA1G, RYR2, PLN), cardiac maturation (HOPX, MYH7, MYL2, TNN13) and cardiac hypertrophy (NPPA, NPPB) as well as pan-cardiomyocyte markers (NKX2-5, TNNT2, ACTA2).
Series [3] relates to GJA5. Description: Gene expression in 3D suspension aggregates 48 h after removal of the agent: GJA5. The series is classed as cell-based, human. Conditions: 10 μM for about 120 h, measured 48 h after treatment, 3D aggregates. As to the method:
(§1) In order to verify the lasting effect and the robustness across different culture systems, we tested the effect of the antiarrhythmic agents on the gene expression profile of the stem-cell derived cardiomyocytes using 3D suspension aggregates and measured the gene expression 48 h after removal of the anti-arrhythmic agents.
(§2) The aggregates were subsequently maintained in 6-well suspension plates on an orbital shaker (75 rpm) at a cell density of about 1.5×10^6 cells/ml in 3 mL medium.

The test system of series [4] is GJA5. Description: Nanostring gene expression, hESC-derived cardiomyocytes in monolayer: GJA5. The series is classed as cell-based, human. Conditions: 0.1 μM and 1 μM, 5 days exposure.
Experimental: as §3, §4
The test system of the next series is ACTA2. In words: Nanostring gene expression, hESC-derived cardiomyocytes in monolayer: ACTA2. The series is classed as cell-based, human. The following applies: 5 days exposure to 0.1 μM and 1 μM amiodarone (FIG. 7).
In series [5] the test system is human induced pluripotent stem cell derived cardiomyocytes (iCell2 cardiomyocytes). In words: Ca2+-recordings, beat-to-beat variability (CV), single agents. The class given is cell-based. The following applies: 24 h after withdrawal. From the text:
In order to determine the lasting impact on the electrophysiological properties of the stem-cell derived cardiomyocytes following exposure to anti-arrhythmic agents, we conducted functional cardiomyocyte testing by means of Ca^2+-recordings and determined the arrhythmogenic potential of the stem-cell derived cardiomyocyte population after exposure to the anti-arrhythmic agents. […] (Kazuto Yamazaki et al, Beat-to-Beat Variability in Field Potential Duration in Human Embryonic Stem Cell-Derived Cardiomyocyte Clusters for Assessment of_Arrhythmogenic Risk, and a Case Study of Its Application, Pharmacology & Pharmacy, Vol. 5 No. 1, 2014, pp. 117-128). Of note, all Ca^2+-recordings were conducted at least 24 h after exposure to exclude the known direct effects of the agents via ion channel modulation. […] The cells were delivered as frozen vials and stored until use in liquid nitrogen. All culturing media necessary for thawing and culturing was supplied by the cell supplier. Thawing, plating and cultivation procedures were followed according to the protocol supplied by the manufacturer. Cells were plated directly onto the 384-well Greiner μClear plates coated with fibronectin. […] Media was changed (90%) one day after plating and then every second day and 3 hours before the experiments for the pilot study. […] Treatment was ended by exchanging medium to standard cultivation medium on DIV 6. Recording took place at DIV 7. Experiments were performed at a minimum of n=10 for each compound concentration. For Ca^2+ imaging experiments media was exchanged for the recordings by a HEPES buffered recording solution. A fluorescent Ca^2+ indicator (Cal-520-AM) was applied at a concentration of 2 μM and allowed to accumulate in the cells for 30 min before the buffer was exchanged again to dye-free buffer. Cells were allowed to recover for 10 min at 37° C. in the Hamamatsu FDSS recording system. All experiments were performed at 37° C. The framerate of the camera was set to a minimum of 35 Hz for recording and a binning of 4×4. To assess if the quality was sufficient for the experiments several parameters were reviewed (by-eye inspection), including regularity of the beating, shape and amplitude of the Ca^2+ signals and variability of these parameters between the different wells. Since the cells were spontaneously active, no electrical stimulation was applied. Cells were recorded for 5 min prior to compound application. 200 μM Moxifloxacin was applied after the baseline phase in a single-concentration-per-well fashion, followed by a wash-in phase of 5 min. Fluorescent activity was then recorded for additional 5 min. Moxifloxacin without compound preincubation was included as control (n=18), distributed over multiple plates. […] Coefficient of variation was calculated as where σ denotes the standard deviation and p represents the mean.

The test system of series [6] is NPPA. In words: Gene expression in 3D suspension aggregates 48 h after removal of the agent: NPPA. The series is classed as cell-based, human. The following applies: 10 μM for about 120 h, measured 48 h after treatment, 3D aggregates. On the procedure: as §1, §2
A further series deals with NKX2-5. Description: Nanostring gene expression, hESC-derived cardiomyocytes in monolayer: NKX2-5. The series is classed as cell-based, human.
For series [7] the following is noted: cited from earlier work.
Where [8] appears, read: 10 nM, proarrhythmic conditions (moxifloxacine).
[9] abbreviates: 100 nM, proarrhythmic conditions (moxifloxacine).

Experimental for ACTA2: as §3, §4
Experimental for NKX2-5: as §3, §4
Experimental for TNNT2: as §3, §4

For `CCCCc1oc2ccccc2c1C(=O)c1cc(I)c(OCCN(CC)CC)c(I)c1` [amiodarone], in the series with TNNT2 (5 days exposure to 0.1 μM and 1 μM amiodarone (FIG. 6)), the “changes of the expression of TNNT2” value is listed as “did not result in changes”. Moreover, the beating frequency result is “clearly reduced” in series [1] (1 μM) and “abrogated” in series [1] (10 μM). Further, in the series with NPPA [2] (amiodarone treatment, 5 days exposure to 0.1 μM and 1 μM (FIG. 3)), the “reduction in NPPA expression” value was “about 3 fold”. Besides, in the series with GJA5 [3], the “increase in GJA5” value is given as “about 2.7 fold”. Moreover, the “upregulation of GJA5” value with GJA5 [4] is on record as greater than 3 fold. Also, in the series on ACTA2, the “changes of the expression of ACTA2” value is given as “did not result in changes”. Also, the “reduction of CV (beat-to-beat variability) compared to control” value (shortened to “reduction of CV”) in series [5] (10 nM, baseline conditions) worked out at 76.5%; in series [5] (setting [8]) it was 83.3%. Besides, the “decrease in NPPA” value in the series on NPPA [6] is recorded as “about 2 fold”. For the same compound, the “changes of the expression of NKX2-5” value in the series with NKX2-5 (5 days exposure to 0.1 μM and 1 μM amiodarone (FIG. 5)) is given as “did not result in changes”.

Regarding `COCCc1ccc(OCC(O)CNC(C)C)cc1` (stereo not drawn) [metoprolol], the “reduction of CV” value is listed as 79.2% in series [5] (10 nM, baseline conditions) and 83.2% in series [5] (setting [8]).

As for `CC(C)NCC(O)c1ccc(NS(C)(=O)=O)cc1` (stereo not drawn) [Sotalol, sotalol], the “typical plasma concentrations in vivo” value in [7] was 1 to 3 µg/mL. Besides, the “reduction of CV” value is 79.4% in series [5] (100 nM, baseline conditions) and 84.9% in series [5] (setting [9]).

As for `CC(C)NCC(O)COc1cccc2ccccc12` (stereo not drawn) [propranolol], the “typical plasma concentrations in vivo” value in series [7] was 0.0021 to 0.3 µg/mL. The “reduction of CV” value in series [5] (100 nM, baseline conditions) is on record as 73.7%; in series [5] (setting [9]), 88.5%.

Consider `CCN(CC)CC(=O)Nc1c(C)cccc1C` [Lidocaine, lidocaine], for which, in the series on TNNT2 (1 μM, 10 μM and 100 μM lidocaine, 5 days (FIG. 12)), the “expression of TNNT2” value is “without effecting the expression”. Moreover, the NPPA expression entry with NPPA [2] (1 μM, 10 μM and 100 μM lidocaine, 5 days, concentration dependent (FIG. 9)) was “decreased”. Moreover, the “reduction of CV” value was found to be 80.8% in [5] (100 nM, baseline conditions) and 84.7% in [5] (setting [9]). Further, the “expression of NKX2-5” value with NKX2-5 (1 μM, 10 μM and 100 μM lidocaine, 5 days (FIG. 11)) is reported as “without effecting the expression”.

Take `Cc1cccc(C)c1OCC(C)N` (stereo not drawn) [Mexiletine, mexiletine]: the “typical plasma concentrations in vivo” value in [7] was 0.6 to 1.7 µg/mL. For the same compound, the “reduction of CV” value in series [5] (100 nM, baseline conditions) is 76.79%; in series [5] (setting [9]) it was 77.5%.

The values are drawn from US20220257665A1, “APPLICATION OF […] AGENTS TO STEM CELL DERIVED CARDIOMYOCYTES AND USES THEREOF” (priority 2019, published 2022).
